Numbering of substitutions follows the chain as printed. Where two headings read alike, the source gives them in different places.
How the values were obtained:
[1] = biological target: T1, MGL (Rattus norvegicus, UniProt Q8R431); assay: 2-AG accumulation assay in rat brain homogenate; assay type: biochemical; conditions: rat brain homogenate, 2-AG accumulation as percent of vehicle; for 2-AG accumulation, % of vehicle control at 1 µM: compound 1 μM, read-out: Rat Brain 2AG % VehCntrl (%) @ 1 μM
T1 construct: one g rat brain was homogenized using a Polytron homogenizer; from tissue; host or cells: rat brain homogenate
T1 sequence (Q8R431 1-303): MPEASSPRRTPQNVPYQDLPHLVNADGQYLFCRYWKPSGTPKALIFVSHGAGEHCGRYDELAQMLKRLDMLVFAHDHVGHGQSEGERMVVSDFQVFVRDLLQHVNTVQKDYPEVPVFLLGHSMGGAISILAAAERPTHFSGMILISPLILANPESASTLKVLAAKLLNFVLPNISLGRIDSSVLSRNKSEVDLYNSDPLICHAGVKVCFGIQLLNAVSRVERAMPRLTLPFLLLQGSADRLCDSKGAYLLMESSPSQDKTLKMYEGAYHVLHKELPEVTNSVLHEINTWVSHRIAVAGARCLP

[2] = biological target: T2, purified wild type MGL (wt-MGLL 6H-11-313) (Homo sapiens, UniProt Q99685)
T2 sequence (Q99685 1-303): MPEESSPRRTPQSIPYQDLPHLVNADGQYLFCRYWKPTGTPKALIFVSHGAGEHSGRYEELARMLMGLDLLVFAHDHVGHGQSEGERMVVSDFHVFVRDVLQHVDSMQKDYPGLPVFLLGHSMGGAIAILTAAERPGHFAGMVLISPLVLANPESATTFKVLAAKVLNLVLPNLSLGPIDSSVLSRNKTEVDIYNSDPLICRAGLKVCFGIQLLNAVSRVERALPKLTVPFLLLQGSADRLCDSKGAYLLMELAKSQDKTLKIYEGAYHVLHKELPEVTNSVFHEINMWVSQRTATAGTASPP

[3] = biological target: T3, mutant MGL (Homo sapiens, UniProt Q99685, L169S/L176S); assay: MGL ThermoFluor assay - mutant; assay type: binding
T3 sequence (Q99685 1-303 L169S/L176S): T2 sequence (Q99685 1-303) with L169S, L176S

[4] = ThermoFluor, compound concentration measured by qNMR, read-out: MGL mutant ThermoFluor qKd (using qNMR conc.)
[5] = ThermoFluor concentration-response, read-out: MGL mutant ThermoFluor Kd
[6] = ThermoFluor thermal stability binding assay, read-out: MGL mutant ThermoFluor Kd
[7] = ThermoFluor, compound concentration measured by qNMR, read-out: MGL mutant ThermoFluor qKd (μM) (using qNMR conc.)

Row | Compound | 2-AG accumulation, % of vehicle control at 1 µM [1] [%] | IC50 [2] [µM] | Kd [3, 5] [µM] | also measured
1 | O=C(c1ccc(-c2ccc(C(F)(F)F)s2)cc1)N1CCN(C2CN(C(=O)c3ccc[nH]3)C2)CC1 [Cpd 1162] | 237 | 0.047 | – | Kd ([3]; compound concentration measured by qNMR, read-out: MGL mutant ThermoFluor qKd (using qNMR conc.)): 0.014 µM
2 | O=C(c1ccc2c(cnn2-c2ccccc2)c1)N1CC(N2CCN(C(=O)c3cscn3)CC2)C1 [Cpd 1163, 1-Phenyl-5-({3-[4-(1,3-thiazol-4-ylcarbonyl)piperazin-1-yl]azetidin-1-yl}carbonyl)-1H-indazole] | 244 | 0.048 | 0.073 | –
3 | O=C(c1ccc(-c2cccc(C(F)(F)F)c2)cc1)N1CCN(C2CN(C(=O)c3ccc[nH]3)C2)CC1 [Cpd 1166, 1-[1-(1H-Pyrrol-2-ylcarbonyl)azetidin-3-yl]-4-{[3′-(trifluoromethyl)biphenyl-4-yl]carbonyl}piperazine] | 176 | 0.052 | 0.01 | –
4 | COc1ccc(C(=O)N2CC(N3CCN(C(=O)c4nccs4)CC3)C2)cc1-c1ccccc1 [Cpd 1168] | 780 | 0.053 | 0.067 | –
5 | Cn1nc(-c2cccc(F)c2)c2cc(C(=O)N3CC(N4CCN(C(=O)c5nccs5)CC4)C3)ccc21 [Cpd 1170] | 258 | 0.059 | 0.014 | –
6 | O=C(c1nccs1)N1CCN(C2CN(C(=O)c3cccc(-c4ccccc4)c3F)C2)CC1 [Cpd 1172] | 931 | 0.063 | 0.178 | –
7 | O=C(c1nccs1)N1CCN(C2CN(C(=O)c3cccc4oc(-c5ccccc5Cl)nc34)C2)CC1 [Cpd 1173] | 133 | 0.065 | – | Kd [3, 6]: 0.007 µM
8 | COc1ccc(-n2ccc3cc(C(=O)N4CC(N5CCN(C(=O)c6ccc[nH]6)CC5)C4)ccc32)cn1 [Cpd 1176, 1-(6-Methoxypyridin-3-yl)-5-({3-[4-(1H-pyrrol-2-ylcarbonyl)piperazin-1-yl]azetidin-1-yl}carbonyl)-1H-indole] | 378 | 0.07 | – | Kd [3, 4]: 0.161 µM
9 | NC(=O)c1cccc(-n2ccc3cc(C(=O)N4CC(N5CCN(C(=O)c6nccs6)CC5)C4)ccc32)c1 [Cpd 1177] | 895 | 0.063 | – | Kd [3, 7]: 0.088 µM
10 | O=C(c1ccc2nc(-c3ccc(F)c(F)c3)oc2c1)N1CC(N2CCN(C(=O)c3cscn3)CC2)C1 [Cpd 1178] | 292 | 0.071 | – | Kd [3, 7]: 0.238 µM
11 | O=C(c1ccc(-c2nc(-c3ccccc3)c(-c3ccccc3)[nH]2)cc1)N1CC(N2CCN(C(=O)c3nccs3)CC2)C1 [Cpd 1179] | 996 | 0.073 | 0.005 | –
12 | Cc1ccc(-n2ccc3cc(C(=O)N4CC(N5CCN(C(=O)c6ccc[nH]6)CC5)C4)ccc32)cn1 [Cpd 1181, 1-(6-Methylpyridin-3-yl)-5-({3-[4-(1H-pyrrol-2-ylcarbonyl)piperazin-1-yl]azetidin-1-yl}carbonyl)-1H-indole] | 288 | 0.077 | – | Kd [3, 4]: 0.278 µM
13 | N#Cc1ccccc1-n1ccc2cc(C(=O)N3CC(N4CCN(C(=O)c5cscn5)CC4)C3)ccc21 [Cpd 1182] | 547 | 0.079 | – | Kd [3, 7]: 0.21 µM
14 | O=C(c1cc(-c2cccc(F)c2)c2[nH]ccc2c1)N1CC(N2CCN(C(=O)c3nccs3)CC2)C1 [Cpd 1183] | 549 | 0.085 | – | Kd [3, 7]: 0.067 µM
15 | Cc1ccc(-n2ccc3cc(C(=O)N4CC(N5CCN(C(=O)C(F)(F)F)CC5)C4)ccc32)nc1 [Cpd 1184, 1-(5-Methylpyridin-2-yl)-5-({3-[4-(trifluoroacetyl)piperazin-1-yl]azetidin-1-yl}carbonyl)-1H-indole] | 401 | 0.086 | – | Kd [3, 4]: 0.244 µM
16 | O=C(c1cccc(-c2ccccc2C(F)(F)F)c1)N1CC(N2CCN(C(=O)c3cscn3)CC2)C1 [Cpd 1185] | 241 | 0.088 | 1.32 | –
17 | O=C(c1cccc(-c2cccc(C(F)(F)F)c2)c1)N1CC(N2CCN(C(=O)c3cscn3)CC2)C1 [Cpd 1188] | 187 | 0.094 | 0.855 | –

More lines, main results first:

Row | 2-AG accumulation, % of vehicle control at 1 µM [1] [%] | IC50 [2] [µM] | Kd [3, 5] [µM] | Compound | also measured
18 | 774 | 0.025 | – | Cc1cn(-c2ccc(F)c(F)c2)c2ccc(C(=O)N3CCN(C4CN(C(=O)c5nccs5)C4)CC3)cc12 [Cpd 1134, 1-(3,4-Difluorophenyl)-3-methyl-5-({4-[1-(1,3-thiazol-2-ylcarbonyl)azetidin-3-yl]piperazin-1-yl}carbonyl)-1H-indole] | Kd [3, 4]: 0.009 µM
19 | 884 | 0.025 | – | O=C(c1ccc2c(ccn2-c2ccccn2)c1)N1CC(N2CCN(C(=O)c3nccs3)CC2)C1 [Cpd 1135, 1-Pyridin-2-yl-5-({3-[4-(1,3-thiazol-2-ylcarbonyl)piperazin-1-yl]azetidin-1-yl}carbonyl)-1H-indole] | Kd [3, 4]: 0.015 µM
20 | 582 | 0.026 | 0.01 | Cn1nc(-c2ccccc2)c2cc(C(=O)N3CC(N4CCN(C(=O)c5nccs5)CC4)C3)ccc21 [Cpd 1137, 1-Methyl-3-phenyl-5-({3-[4-(1,3-thiazol-2-ylcarbonyl)piperazin-1-yl]azetidin-1-yl}carbonyl)-1H-indazole] | –
21 | 271 | 0.026 | 0.018 | O=C(c1ccc(-c2ccc(C(F)(F)F)s2)cc1)N1CC(N2CCN(C(=O)c3ccc[nH]3)CC2)C1 [Cpd 1138] | –
22 | 200 | 0.027 | – | O=C(c1ccoc1)N1CCN(C2CN(C(=O)c3ccc(-c4ccccc4)cc3)C2)CC1 [Cpd 1140] | Kd [3, 6]: 0.112 µM
23 | 212 | 0.031 | 0.181 | O=C(c1cc(-c2ccccc2)cc(C(F)(F)F)c1)N1CC(N2CCN(C(=O)c3nccs3)CC2)C1 [Cpd 1144, 1-(1,3-Thiazol-2-ylcarbonyl)-4-(1-{[5-(trifluoromethyl)biphenyl-3-yl]carbonyl}azetidin-3-yl)piperazine] | –
24 | 459 | 0.036 | 0.013 | Cc1nc(-c2ccc(F)cc2)sc1C(=O)N1CC(N2CCN(C(=O)c3nccs3)CC2)C1 [Cpd 1150] | 2-AG accumulation, % of vehicle control at 0.1 µM ([1]; compound 0.1 μM, read-out: Rat Brain 2AG % VehCntrl (%) @ 0.1 μM): 139%; 2-AG accumulation, % of vehicle control at 10 µM ([1]; compound 10 μM, read-out: Rat Brain 2AG % VehCntrl (%) @ 10 μM): 715%
25 | 394 | 0.038 | – | Cc1cn(-c2ccccc2)c2ccc(C(=O)N3CC(N4CCN(C(=O)c5cscn5)CC4)C3)cc12 [Cpd 1152] | Kd [3, 6]: 0.007 µM
26 | 404 | 0.039 | – | O=C(c1ccc2c(ccn2-c2ccc(F)cc2)n1)N1CC(N2CCN(C(=O)c3nccs3)CC2)C1 [Cpd 1153] | Kd [3, 7]: 0.004 µM
27 | 558 | 0.04 | – | O=C(c1nccs1)N1CCN(C2CN(C(=O)c3cccc4nc(-c5ccccc5)oc34)C2)CC1 [Cpd 1154, 2-Phenyl-7-({3-[4-(1,3-thiazol-2-ylcarbonyl)piperazin-1-yl]azetidin-1-yl}carbonyl)-1,3-benzoxazole] | Kd [3, 6]: 0.006 µM
28 | 681 | 0.041 | 0.09 | Cc1ccc(-c2nnc(-c3ccc(C(=O)N4CC(N5CCN(C(=O)c6nccs6)CC5)C4)cc3)o2)cc1 [Cpd 1156] | –
29 | 252 | 0.041 | – | O=C(c1cc(-c2ccc(F)cc2)cs1)N1CC(N2CCN(C(=O)c3nccs3)CC2)C1 [Cpd 1157] | Kd [3, 7]: 0.179 µM
30 | 260 | 0.045 | – | O=C(c1cc(-c2cccc(F)c2)cs1)N1CC(N2CCN(C(=O)c3nccs3)CC2)C1 [Cpd 1160] | Kd [3, 7]: 0.139 µM
31 | 459 | 0.046 | 0.025 | O=C(c1ccc(-c2ccc(C(F)(F)F)s2)cc1)N1CCN(C2CN(C(=O)c3nccs3)C2)CC1 [Cpd 1161] | –

Reference: patent US8362000B2, “Azetidinyl diamides as monoacylglycerol lipase inhibitors” (Janssen Pharmaceutica NV, priority 2009, dated 2013)
